Entries after “also recorded” stand apart in the source; their conditions may differ. Some results are limits rather than exact numbers.

Series [1] is described as follows: Degree of kokumi with thickeners carrageenan, gellan gum, Tamarind gum (Examples 168-170). On the set-up: species or system people. Conditions: in vivo. The method, then:
Carrageenan was added to pure water to prepare several carrageenan solutions with a concentration gradient as standard solutions for judging the degree of kokumi of the carrageenan solutions. […] Method: For evaluation of the degree of kokumi, the sample solutions (described above) were tested by a panel of four people. […] The tester was allowed to re-taste, and then made judgment. […] Gellan gum was added to pure water to prepare several gellan gum solutions with a concentration gradient as standard solutions for judging the degree of kokumi of the gellan gum solutions. […] Method: For evaluation of the degree of kokumi, the sample solutions (described above) were tested by a panel of four people. […] The tester was allowed to re-taste, and then made judgment. […] Tamarind gum was added to pure water to prepare several Tamarind gum solutions with a concentration gradient as standard solutions for judging the degree of kokumi of the Tamarind gum solutions. […] Method: For evaluation of the degree of kokumi, the sample solutions (described above) were tested by a panel of four people. […] The tester was allowed to re-taste, and then made judgment.

Series [2] is described as follows: Kinetics of reaction in dependence of pH-conditions: degradation of Phe and Reb-A, Gluc, Xyl, Suc (HPLC/MS). The note with it: KH2PO4 Buffer, 1.0 h, 120° C.; for % formation from degraded Phe: reaction of Phe and Suc, n.d. = not detected; for Degradation: reaction of Phe and Gluc.
Experimental: All samples were analyzed by HPLC/MS using following conditions.
The mobile phase consisted of (A) 0.1% HCOOH (v/v) and (B) AcCN. A gradient of 5% (B) to 15% (B) was applied between 0 min to 15 min. Between 15 and 20 min (B) was increased to 45% which was kept for 5 min. Detection consisted of UV/VIS-DAD (205 nm, 254 nm, 450 nm) coupled to ESI-MS (pos mode, 300° C., TIC from m/z 120-1200, fragmentor 100).
Quantitative Evaluation was Performed Using External Standardization.
Series [3] is described as follows: Stevia-derived MRPs with NHDC and Thaumatin in Red Bull sugarfree (Example 240). It is filed as in vivo. The note with it: 150 μl of sample in 100 ml Redbull sugar free. The method, then:
Stevia-derived MRPs (Reference): 0.67 g xylose, 0.33 g phenylalanine and 4 g Stevia extract TSG95 were dissolved in 2.5 g deionized water. The solution was heated at about 100° C. for 2 h. After the reaction was complete, the slurry was diluted with 25 g water.
Stevia-derived MRPs by Combination of GSGs and SGs: 0.67 g xylose, 0.33 g phenylalanine, 4 g SGA (Combination of GSGs and SGs) were dissolved in 2.5 g deionized water. The solution was heated at about 100° C. for 2 h. After the reaction was complete, the slurry was diluted with 25 g water.
Stevia-derived MRPs by Combination of GSGs and SGs and NHDC: 0.67 g xylose, 0.33 g phenylalanine, 4 g SGA (Combination of GSGs and SGs) and 3 ppm (=82.5 μg) NHDC were dissolved in water. The solution was heated at about 100° C. for 2 h. After the reaction was complete, the slurry was diluted with 25 g water.
Stevia-derived MRPs by SGA (Combination of GSGs and SGs), NHDC and Thaumatin: 0.67 g xylose, 0.33 g phenylalanine, 4 g SGA (Combination of GSGs and SGs), 3 ppm (=82.5 μg) NHDC and 5 ppm (=302.5 μg EPCalin 45%) Thaumatin were dissolved in 2.5 g deionized water. The solution was heated at about 100° C. for 2 h. After the reaction was complete, the slurry was diluted with 25 g water.
150 μl of the each sample was added to 100 ml Redbull sugar free and mixed. The taste profiles of the samples were compared. […]

Series [4] is described as follows: Sensory evaluation of combinations of NHDC, EPCalin (Thaumatin) and Combination of GSGs and SGs in water (Example 234). It is filed as in vivo. Conditions: 4.5 ppm Thaumatin and/or 50 ppm GSGs and SGs. The procedure: 4.5 ppm Thaumatin (equivalent to 10 ppm EPCalin) were dissolved in water. Increasing amounts of NHDC (1-5 ppm) were added to the solution and the sensory properties were evaluated.
50 ppm (GSGs and SGs) were dissolved in water. Increasing amounts of NHDC (1-5 ppm) were added to the solution and the sensory properties were evaluated.
50 ppm (GSGs and SGs) and 4.5 ppm Thaumatin (equivalent to 10 ppm EPCalin) were dissolved in water. Increasing amounts of NHDC (1-5 ppm) were added to the solution and the sensory properties were evaluated.
Sweetness intensity was rated on 5-point scale

Series [5] in a line: DPPH radical-scavenging activity (DPPH test for anti-oxidant potential). The class given is physicochemical. Conditions: combinations of amino acids and Reb-A, 100° C., 0, 2.5 or 5.0 hours, diluted 1:10. The procedure: Assay to Rest DPPH Radical-Scavenging Activity
1 mg 1,1-Diphenyl-2-picrylhydrazyl radical (DPPH)/ml ethanol, dilution to assay concentration were prepared in ethanol (40 μg/mL); Calibration samples were prepared with Ascorbic acid in a concentration of 0-10 μg/mL; as a negative control sample, water was used.
Samples in aqueous solution were used as such or diluted with water.
A 0.1 ml sample (or calibration standard) was mixed with 3.9 ml solution of DPPH° (100 μMolar) and reacted while protected from light at room temperature for 30 min. Absorbance was determined at 517 nm against ethanol.
10 mM of amino acid and/or 10 mM sugar were dissolved in 10 ml 0.1 mM KH2PO4-buffer, pH=7.8.
The samples were kept at 100° C. in sealed glass vials (Pyrex 15 ml with screw caps) for 0 (before reaction), 2.5 or 5.0 hours. Thereafter the samples were transferred to an ice water bath and cooled down to room temperature. These samples were diluted 1:10 and used for the test assay for anti-oxidant potential. […]
0.2 ml sample (or calibration standard) solution was mixed with 0.2 ml solution of DPPH° (0.1 mM) and 3.6 ml methanol. […] After 3 minutes the absorbance at 517 nm was obtained against ethanol. Quantification was performed by linear regression of calibration test results for ascorbic acid. […]

The nature of series [6]: Assay to test reducing power (iron-III reduction test for anti-oxidant potential). It is filed as physicochemical. Conditions: combinations of amino acids and Reb-A, 100° C., 0, 2.5 or 5.0 hours, diluted 1:10. The method, then: Assay to Test Reducing Power
0.2 M Sodium phosphate buffer, pH=6.6; 500 mg Potassium ferric(III)cyanide/50 mL water, 10% Trichloroacetic acid; 20 mg Iron-III-Chloride/20 mL water; Calibration samples were prepared with Ascorbic acid in a concentration of 0-100 μg/mL 0.2 M Sodium phosphate buffer, pH=6.6 (freshly prepared); as negative control sample water was used.
Samples in aqueous solution were used as such or diluted in 0.2 M Sodium phosphate buffer, pH=6.6.
A 1 mL sample (or calibration standard) was mixed with 1 mL 0.2 M Sodium phosphate buffer, pH=6.6 and 1 mL Potassium ferricyanide solution. The sample was incubated and protected from light at 50° C. for 20 min.
To the solution was added 1 mL Trichloroacetic acid with thorough mixing.
A 1 mL of the mixture was diluted with 1 mL H2O and 0.2 mL Iron-Ill-chloride and reacted for 10 minutes; The absorbance was then determined at 700 nm against H2O.
10 mM of amino acid and/or 10 mM sugar were dissolved in 10 ml 0.1 mM KH2PO4-buffer, pH=7.8. […]
1 ml sample (or calibration standard) solution) was mixed with 0.2 M Sodium phosphate buffer (pH=6.6) and 1 ml Potassium ferric(III)cyanide solution in water (1% w/v) and incubated at 50° C. for 20 minutes. […] The sample was incubated for 10 minutes and absorbance read at 700 nm against a water control. […]
Quantification was performed by linear regression of calibration test results for ascorbic acid. […]

For the compound Tamarind gum, the “concentration above which taste like starch paste can be clearly felt” value in series [1] is “exceeds 1400 ppm”.
Still for that read-out and setting: as for gellan gum, the entry is “exceeds 1400 ppm”.
As for `O=C(O)[C@H](Cc1ccccc1)NCC(=O)[C@@H](O)[C@H](O)[C@H](O)CO` [MRI (Phe-Glu)], the figures for the “% formation from degraded Phe” value in series [2] (pH = 5.5), in series [2] (pH = 7.0) and in series [2] (pH = 8.5) were less than 0.10%, 0.54% and 0.84%, respectively.
As for carrageenan, in series [1], the “concentration above which taste like starch paste can be clearly felt” value is “exceeds 1000 ppm”.
Regarding `NC(Cc1ccccc1)C(=O)O` (single isomer, unassigned) [Phe], the values for the Degradation in series [2] (pH = 5.5), in series [2] (pH = 7.0) and in series [2] (pH = 8.5) were 2.26, 2.18 and 4.24, respectively.
Regarding `COc1ccc(CCC(=O)c2c(O)cc(O[C@@H]3O[C@H](CO)[C@@H](O)[C@H](O)[C@H]3O[C@@H]3O[C@@H](C)[C@H](O)[C@@H](O)[C@H]3O)cc2O)cc1O` [NHDC, Neohesperidin dihydrochalcone], the “taste profile in sugarfree beverage” value in series [3] is “improved the mouth-feel and harmony of taste impression yielding a substantially improved taste profile”. In series [4], the “sensory properties (sweetness, onset, lingering, mouth-feel)” value is “long lasting lingering; also recorded: boosts the lingering”.
In the case of `OC[C@H]1OC(O)[C@H](O)[C@@H](O)[C@@H]1O` (stereo partly shown) [Glu], the figures for the Degradation in series [2] (pH = 5.5), in series [2] (pH = 7.0) and in series [2] (pH = 8.5) were 3.65, 4.6 and 7.62, respectively.
As for `C=C1C[C@@]23CC[C@H]4[C@@](C)(CCC[C@@]4(C)C(=O)O[C@@H]4O[C@H](CO)[C@@H](O)[C@H](O)[C@H]4O)[C@@H]2CC[C@]1(O[C@@H]1O[C@H](CO)[C@@H](O)[C@H](O[C@@H]2O[C@H](CO)[C@@H](O)[C@H](O)[C@H]2O)[C@H]1O[C@@H]1O[C@H](CO)[C@@H](O)[C@H](O)[C@H]1O)C3` [Reb-A, Rebaudioside A], the “anti-oxidant properties (radical scavenging)” value in series [5] was “substantial anti-oxidant properties”. Also, the “anti-oxidant properties (active iron-III reduction)” value in series [6] is recorded as “substantial anti-oxidant properties”.
